Experiments:
[1] = system: S. pyogenes SP-STK; experiment: In vitro autophosphorylation / kinase activity of SP-STK; type: biochemical
[2] = system: S. aureus MW2-WT; experiment: microbe, parasite or virus in culture; type: cell-based, Staphylococcus aureus; conditions: E-test, 50 μM Inh2-B1, 6 antibiotics
[3] = system: S. aureus MW2; experiment: Broth dilution susceptibility / growth inhibition assay, Muller Hinton broth; type: cell-based, Staphylococcus aureus; conditions: growth inhibition of S. aureus MW2
Experimental: (§1) Subsequently, the susceptibility of S. aureus MW2 strain to Ceftriaxone, Cefotaxime, Inh2, and Inh2-B1 was confirmed by the CLSI recommended serial dilution method using Muller Hinton broth. Minimum bactericidal activity (MBC) was measured using Muller-Hinton agar. Changes in the MBC of Ceftriaxone/Cefotaxime in the presence of serially diluted Inh2-B1 was determined in two steps. Initial screening was carried out using the Checkerboard method using Muller-Hinton agar (FIG. 15). […] Subsequent time to kill assays were carried out using 50 μM Inh2-B1 and Ceftriaxone. Cefotaxime (1 μg/ml) in a final volume of 250 μl using a sterile 96-well (U-bottom) microtiter plate over a period of 16 h at 37° C. under constant rotation (120 rpm). Optical density and corresponding CFU counts were measured at every two-hour interval up to 8 hours with a final overnight reading at the end of incubation period. CFU counts were measured using appropriate dilution of 10 μl of properly mixed samples at each time interval. All experiments were performed in three biological replicates and the statistical analysis of the results obtained at each time point was carried out by the non-parametric t-test with Welch's correction using GraphPad Prism 6 software.

[4] = system: S. aureus MW2 wild-type; experiment: Checkerboard titration end-point bactericidal assay (MBC), Muller-Hinton agar; type: cell-based, Staphylococcus aureus; conditions: agent alone
Experimental: FIGS. 15A-15B show checkerboard assays for determining bactericidal assay. Serial two-fold dilutions of 2 mM of Inh2-B1 (MW=411.58 g/mol) and (A) 3 mM ceftriaxone (MW=669.7 g/mol) were made in two separate 96-well plates in vertical (B1-B12 to H1-H2 wells) and horizontal (A2-H2 to A12-H12 wells) directions respectively. Serially diluted Inh2-B1 (100 μL) in the individual well was then mixed with the 100 μL serially diluted ceftriaxone present in the corresponding wells. The resulting various combinations of Inh2-B1 (starting from 1 mM) and ceftriaxone (starting from 1.5 mM) or cefotaxime (2.1 mM) as well as serially diluted one Inh2-B1 (B1 to H1) and ceftriaxone (A2-A12) or cefotaxime (A2-A12) were then incorporated in Muller-Hinton mini agar plates (2 mL). The agar plates were then seeded and diluted S. aureus MW2-wild-type culture equivalent to approximately 23±3 CFU. This checkerboard assay was used to determine the ideal combination of lowest concentration of Inh2-B1 and ceftriaxone that kills 99.9% of the wild-type MW2.
Since the STK1 is not essential for bacterial survival and its absence results in retardation of growth, an end-point bactericidal assay was done, employing the Checkerboard titration method followed by a time-to-kill assay using the broth dilution method. The 96-well plate-based checkerboard titration assays were performed using the fixed number of CFUs of MW2 strain, and the survival of the bacteria was measured on solid agar plates as an end-point result. […] The cut-off value to designate clinical isolates of S. aureus for antibiotics, including Ceftriaxone (TX) and Cefotaxime (CT) as susceptible, is less than 4 μg/ml (i.e., <4.8 μM of TX, and <7 μM of CT). […] CFU counts of MW2-WT grown in the presence of various concentrations of Inh2-B1 were examined over a period of 16 h. […] Similarly, it was also determined CFU counts of MW2-WT and MW2ΔSTK1 strains each grown in the absence or the presence of 50 μM of Inh2-B1 and 1.5 μM Ceftriaxone (1 μg/ml) or […] Cefotaxime (1 μg/ml) for 16 h employing the broth dilution method. […] Further, to address whether MW2 or STK1 could become refractory to a potential combined therapy, the S. aureus MW2 wild-type strain was grown in the presence of suboptimal dose of Inh2-B1 alone and combination with Ceftriaxone and Cefotaxime (25 μM Inh2-B1 and 3 μM of Ceftriaxone or 3 μM Cefotaxime) for consecutive 10 generations.
as §1, with “interval.” for “interval. All experiments were performed in three biological replicates and the statistical analysis of the results obtained at each time point was carried out by the non-parametric t-test with Welch's correction using GraphPad Prism 6 software.”

[5] = system: S. aureus MW2 wild-type biofilms; experiment: Biofilm formation, crystal violet stain method; type: cell-based, Staphylococcus aureus; conditions: 25 μM
Experimental: (§2) The ability to form biofilms by S. aureus MW2 strain in the absence and presence of Inh2-B1 was determined using the crystal violet stain method. Briefly, the assay was carried out in 24-well tissue culture plates in a final volume of 500 μl of TSB broth with or without Inh2-B1 (25 μM). The culture plates were then seeded with 1:1000 dilution of the freshly grown S. aureus cultures to late log phase (O.D600=0.8) and further incubated for 48 h. At the end of incubation, the culture medium from each well was carefully removed and stained with 1% Crystal violet for 5 min. The unbound stain was then removed by repeated washings with distilled water and air dried. The stained biofilms were then extracted and dissolved in 500 μl 100% of isopropanol. Aliquots of fully suspended biofilms (100 μl/well) in isopropanol from each well were spectrophotometrically (λ=550 nm) analyzed using a microtiter plate reader (Molecular Devices). The test samples were analyzed after subtracting the background values obtained from wells containing an only medium. All results were obtained with three independent cultures each in three wells. In another set of experiments. Inh2-B1 (25 μM) was added to the 48 h-grown established biofilms of S. aureus MW2 to determine the impact of Inh2-B1 on the preformed biofilms and its ability to disrupt or further formation of biofilms. For this, old medium was carefully removed to allow the minimal loss of the loosely attached apical part of the preformed biofilms and replace with 2 ml of fresh TSB medium with or without 25 μM Inh2-B1 inhibitor and incubated further for 48 h at 37° C. Subsequently, the biofilm formation or its disruption was quantitatively estimated as described above and statistically evaluated.

[6] = system: S. aureus MW2ΔSTP1 biofilms; experiment: Biofilm formation, crystal violet stain method; type: cell-based, Staphylococcus aureus; conditions: 25 μM
Experimental: as §2

## COC(=O)c1ccc2c(=O)[nH]c3c(C(=O)Nc4ccccc4)sc(=S)n3c2c1 [Inh2-B1, Methyl 5-oxo-3-(phenylcarbamoyl)-1-thioxo-4,5dihydro[1,3]thiazolo[3,4-a]quinazoline-8-carboxylate]
[1]
  inhibition of the kinase activity of SP-STK of S. pyogenes: did not inhibit the kinase activity
[2]
  effect on susceptibility patterns of antibiotics other than cell wall acting ones: did not change susceptibility patterns
[3]
  concentration at which S. aureus MW2 still grows: > 50 µM
[4]; Staphylococcus aureus, MW2WILDTYPE, MW2, read-out: Minimum bactericidal concentration (MBC)
  MBC: 100 µM
[4]; further analysis
  concentration up to which growth of MW2 was seen: 90 µM
[4]; checkerboard
  concentration of wells with ≥1 CFU of wild-type MW2: ≤ 50 µM
[5]; 48 h
  biofilm formation in the presence of Inh2-B1: significantly decreased formation of biofilms
[5]; further 48 h
  effect on preformed biofilms: significant reduction in biofilm formation
[6]; 48 h
  biofilm formation in the presence of Inh2-B1: significantly decreased formation of biofilms
[6]; further 48 h
  effect on preformed biofilms: significant reduction in biofilm formation
